Here are results for four molecules from paper PMC4079689, “HIV Treatments Reduce Malaria Liver Stage Burden in a Non-Human Primate Model of Malaria Infection at Clinically Relevant Concentrations In Vivo” (PLoS ONE, 2014).

SMILES strings stand for the structures. Read-outs that look alike come from different tables or passages of the source.

In series [1] the test system is P. knowlesi asexual blood stage parasites. Further details: method as in PMID 21486958. To be noted: rhesus macaques; cited from earlier work.
The next series in a line: in vivo. To be noted: Indian origin, rhesus monkey, po; for Cmax: 50 mg/kg.
For series [2] the following is noted: human historical data, cited from earlier work.
For series [3] the following is noted: Indian origin, rhesus monkey, in vivo, po.
Details of series [4]: method as in Ibarra et al. Eur J Pharm Sci. 2012;46(5):516–21. To be noted: human historical data, LPV-RTV; ref Ibarra et al. Eur J Pharm Sci. 2012;46(5):516–21; cited from earlier work.
The nature of series [5]: Pharmacokinetic study, single dose by gavage, plasma HPLC-MS/MS.
Where [6] appears, read: TMP-SMX, ref Patel et al. 1980, Dudley et al. 1984.
Where [7] appears, read: rhesus JMF, dosing regimen LPV-RTV+TMP-SMX, sedated.
[8] abbreviates: rhesus JRH, dosing regimen LPV-RTV+TMP-SMX, awake.
Where [9] appears, read: rhesus LK8A, dosing regimen LPV-RTV alone, sedated.

As for `CC(C)(C)NC(=O)[C@@H]1CN(Cc2cccnc2)CCN1C[C@@H](O)C[C@@H](Cc1ccccc1)C(=O)N[C@H]1c2ccccc2C[C@H]1O` [indinavir], the “Killing activity against P. knowlesi” value in series [1] is on record as “exhibited killing activity”.

In the series “in vivo” (in vivo), `COc1cc(Cc2cnc(N)nc2N)cc(OC)c1OC` [Trimethoprim] showed an AUC(0-t) of 1730 ng·h/mL. Also, in series [2] (setting [6]), the T1/2 was 8 to 10 h and the Tmax is 1 to 4 h. The “AUC0–24” value in series [2] (dose 5 mg/kg trimethoprim and 25 mg/kg sulfamethoxazole iv, ref Dudley et al. Antimicrob Agents Chemother 1984;26:811–814) was 32.6 ^2 µg*hr/mL. In addition, in series [2] (dose 160 mg trimethoprim and 800 mg sulfamethoxazole, ref Patel et al. Clin Pharmacokinet 1980;5:405–423), the Cmax is on record as 1–2 ^1 µg/mL. In series [3], this molecule registered a Cmax of 130 ng/mL.

The molecule `CC(C)c1nc(CN(C)C(=O)N[C@H](C(=O)N[C@@H](Cc2ccccc2)C[C@H](O)[C@H](Cc2ccccc2)NC(=O)OCc2cncs2)C(C)C)cs1` [Ritonavir] had a Cmax in the series “in vivo” (plasma) of 3600 ng/mL. The “AUC0–24” value in series [4] is 4310 ng·h/mL; in series [5] (setting [7]), 11100 ng·h/mL; in series [5] (setting [8]), 23200 ng·h/mL; in series [5] (setting [9]), 37800 ng·h/mL. The T1/2 in series [4] was 5.12 h. The Tmax in series [4] was 3 to 6 h; in series [5] (setting [7]), 24.0 h; in series [5] (setting [8]) it was 6.0 h; in series [5] (setting [9]) it was 8.0 h.

In the series “in vivo” (in vivo), `Cc1cccc(C)c1OCC(=O)N[C@@H](Cc1ccccc1)[C@@H](O)C[C@H](Cc1ccccc1)NC(=O)[C@H](C(C)C)N1CCCNC1=O` [Lopinavir] had an AUC(0-t) of 171000 ng·h/mL and a Cmax of 10300 ng/mL. For the same molecule, in series [4], the “AUC0–24” value was 95000 ng·h/mL, the Cmax is 7060 ng/mL, the T1/2 was 5.2 h and the Tmax is 3 to 6 h. Also, the Cmax in series [3] was found to be 10900 ng/mL.

A word on the AUC(0-t): it is the area under the concentration-time curve up to a stated or last time point. Lower therefore signals low exposure. The Tmax is the time at which the peak concentration occurs. By Cmax is commonly meant the maximum level reached in the sampled fluid or tissue.
